Here are results for 16 compounds from US20090131468A1, “Bis-(Sulfonylamino) Derivatives in Therapy 065” (AstraZeneca AB, priority 2007, published 2009).

The target of the assay is T1, human mPGES-1 (Homo sapiens, UniProt O14684).
T1 sequence (O14684 1-152): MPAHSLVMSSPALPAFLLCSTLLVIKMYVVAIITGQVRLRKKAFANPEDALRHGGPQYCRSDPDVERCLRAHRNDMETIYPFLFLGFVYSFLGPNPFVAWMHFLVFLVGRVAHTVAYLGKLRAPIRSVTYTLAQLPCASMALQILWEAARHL
The assay is described as follows: Microsomal prostaglandin E synthase biochemical assay. To be noted: microsome preparation containing human mPGES-1; PGH2 10.8 μM, GSH 2.5 mM, pH 6.8; PGE2 quantified by HTRF; average of at least n=2. The procedure, abridged: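 Human mPGES-1 microsomes (from IL-1β-stimulated A549 cells or Sf9 cells expressing human mPGES-1) were pre-incubated 15 min with compound in potassium phosphate buffer pH 6.8 with GSH. PGH2 was then added, and the reaction was stopped after one minute with acidic ferric chloride/citrate. PGE2 was read by HTRF, and IC50 was taken from control-normalised activity.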
(In general: In TR-FRET formats the signal depends on donor and acceptor labels being close together.)
The term IC50 denotes the concentration that inhibits the measured activity by half. The low end stands for greater potency, the high end for weaker potency. For the compound `CC(C)C#Cc1ccc(C(=O)NS(=O)(=O)c2ccccc2S(N)(=O)=O)cc1` [Example 113, 4-(3-Methylbut-1-ynyl)-N-(2-sulfamoylphenylsulfonyl)benzamide], the IC50 stood at 80 nM.

Turning to `NS(=O)(=O)c1ccccc1S(=O)(=O)NC(=O)c1ccc2[nH]c(-c3ccccc3)cc2c1` [Example 140], half-maximal inhibition (IC50) required 140 nM.

As to `COCCOCCOc1cc(C(=O)NS(=O)(=O)c2ccccc2S(N)(=O)=O)cnc1C#CC1CCCC1` [Example 136, 6-(Cyclopentylethynyl)-5-(2-(2-methoxyethoxy)ethoxy)-N-(2-sulfamoylphenyl-sulfonyl)nicotinamide], the IC50 was 65 nM.

On to `CC(C)(C)C#Cc1ccc(C(=O)NS(=O)(=O)c2ccccc2S(N)(=O)=O)cc1C#N` [Example 79, 3-Cyano-4-(3,3-dimethylbut-1-ynyl)-N-(2-sulfamoylphenylsulfonyl)benzamide], for which the IC50 worked out at 70 nM. The IC50 values of the last two compounds are within 1.5-fold of each other.

In turn, `COC(C)(C)C#Cc1ccc(C(=O)NS(=O)(=O)c2ccccc2S(N)(=O)=O)cc1O` [Example 115, 3-Hydroxy-4-(3-methoxy-3-methylbut-1-ynyl)-N-(2-sulfamoylphenylsulfonyl)-benzamide] came in with an IC50 of 4300 nM.

`NS(=O)(=O)c1ccccc1S(=O)(=O)NC(=O)c1ccc(C#CC2CC2)c(OCCC(F)(F)F)c1` [Example 160, 4-(Cyclopropylethynyl)-N-(2-sulfamoylphenylsulfonyl)-3-(3,3,3-trifluoropropoxy)-benzamide] displayed an IC50 of 32 nM.

In turn, `NS(=O)(=O)c1ccccc1S(=O)(=O)NC(=O)c1ccc2oc(C3CC3)cc2c1` [Example 126, 2-Cyclopropyl-N-(2-sulfamoylphenylsulfonyl)benzofuran-5-carboxamide] had an IC50 of 260 nM.

The compound `Cc1nc(-c2cccc(Cl)c2)sc1C(=O)NS(=O)(=O)c1ccccc1S(N)(=O)=O` [Example 42, 2-(3-Chlorophenyl)-4-methyl-N-(2-sulfamoylphenyl)sulfonyl-1,3-thiazole-5-carboxamide] displayed an IC50 of 110 nM. This IC50 is about 2.4-fold lower than that of the compound before.

In the case of `COc1cc(C(=O)NS(=O)(=O)c2ccccc2S(N)(=O)=O)ccc1-c1cc2ccccc2o1` [Example 50, 4-(Benzofuran-2-yl)-3-methoxy-N-(2-sulfamoylphenylsulfonyl)benzamide], half-maximal inhibition (IC50) was put at 3.2 nM.

Consider `COC(C)(C)CCOc1cc(C(=O)NS(=O)(=O)c2ccccc2S(N)(=O)=O)ccc1-c1cc2ccccc2o1` [Example 145, 4-(Benzofuran-2-yl)-3-(3-methoxy-3-methylbutoxy)-N-(2-sulfamoylphenylsulfonyl)-benzamide], for which the IC50 stood at 23 nM.

As for `NS(=O)(=O)c1ccccc1S(=O)(=O)NC(=O)c1ccc(C#Cc2ccccc2)c(CO)c1` [Example 100, 3-(Hydroxymethyl)-4-(phenylethynyl)-N-(2-sulfamoylphenylsulfonyl)benzamide], the IC50 stood at 70 nM.

In the case of `NS(=O)(=O)c1ccccc1S(=O)(=O)NC(=O)c1ccc(C#CC2CCCC2)cc1` [Example 65, 4-(Cyclopentylethynyl)-N-(2-sulfamoylphenylsulfonyl)benzamide], half-maximal inhibition (IC50) was put at 14 nM.

In the case of `Cc1cc(-c2cc3ccccc3o2)ccc1C(=O)NS(=O)(=O)c1ccccc1S(N)(=O)=O` [Example 46, 4-(Benzofuran-2-yl)-2-methyl-N-(2-sulfamoylphenylsulfonyl)benzamide], the IC50 was determined as 46 nM.

As for `CC(C)(O)C#Cc1cccc(-c2ccccc2C(=O)NS(=O)(=O)c2ccccc2S(N)(=O)=O)c1` [Example 64, 3′-(3-Hydroxy-3-methylbut-1-ynyl)-N-(2-sulfamoylphenylsulfonyl)biphenyl-2-carboxamide], 6200 nM corresponded to half-maximal inhibition (IC50).

`CCC(O)(C#Cc1ccc(C(=O)NS(=O)(=O)c2ccccc2S(N)(=O)=O)cc1)CC` [Example 56, 4-(3-Ethyl-3-hydroxypent-1-ynyl)-N-(2-sulfamoylphenylsulfonyl)benzamide] returned an IC50 of 2300 nM.

With `Cc1cc(C(=O)NS(=O)(=O)c2ccccc2S(N)(=O)=O)ccc1-c1cc2ccccc2o1` [Example 45, 4-(Benzofuran-2-yl)-3-methyl-N-(2-sulfamoylphenylsulfonyl)benzamide], the IC50 stood at 5.5 nM.
